Assays:
goosegrass = test: Test C pre-/postemergence herbicide test; assay type: in vivo, Eleusine indica
In short: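 Greenhouse-grown plants were evaluated visually 12 to 14 days after treatment, with 100 meaning complete control and 0 no effect. Application was preemergence, or postemergence at 2 to 18 cm.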

chickweed = test: Test C postemergence herbicide test; assay type: in vivo, Stellaria media; settings: for Chickweed plant response rating: 500 g ai/ha
Description: At the same time, plants selected from these crop and weed species and also winter barley (Hordeum vulgare L.), blackgrass (Alopecurus myosuroides Huds.), canarygrass (Phalaris minor Retz.), chickweed (Stellaria media (L.) Vill.), downy bromegrass (Bromus tectorum L.), green foxtail (Setaria viridis (L.) Beauv.), Italian ryegrass (Lolium multiflorum Lam.), wheat (Triticum aestivum L.), wild oat (Avenafatua L.) and windgrass (Apera spica-venti (L.) Beauv.) were treated with postemergence applications of some of the test chemicals formulated in the same manner. Plants ranged in height from 2 to 18 cm (1- to 4-leaf stage) for postemergence treatments. Plant species in the flooded paddy test consisted of rice (Oryza sativa), smallflower umbrella sedge (Cyperus difformis L.), ducksalad (Heteranthera limosa (Sw.) Willd.) and barnyardgrass (Echinochloa crus-galli (L.) Beauv.) grown to the 2-leaf stage for testing. Treated plants and controls were maintained in a greenhouse for 12 to 14 days, after which time all species were compared to controls and visually evaluated. Plant response ratings, summarized in Table C, are based on a scale of 0 to 100 where 0 is no effect and 100 is complete control. A dash (-) response means no test result.

winter barley = test: Test C postemergence herbicide test; assay type: in vivo, Hordeum vulgare
In short: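 Greenhouse test with a 12–14 day hold after application and visual comparison with controls. Emerged plants were 1- to 4-leaf stage (2–18 cm) when sprayed postemergence, and the paddy barnyardgrass was at 2 leaves under flooded conditions. 100 = complete control.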

blackgrass = test: Test C postemergence herbicide test; assay type: in vivo, Alopecurus myosuroides; settings: for Blackgrass plant response rating: 500 g ai/ha
In short: (§1)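 Weeds and wheat were sprayed after emergence, at a height of 2 to 18 cm (1–4 leaves), and paddy barnyardgrass was flooded and treated at two leaves. Assessment took place 12–14 days later in the greenhouse on a 0-to-100 visual control scale. A dash means no result was obtained.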

canarygrass = test: Test C postemergence herbicide test; assay type: in vivo, Phalaris minor
In short: as §1

downy bromegrass = test: Test C postemergence herbicide test; assay type: in vivo, Bromus tectorum
In short: as §1

green foxtail = test: Test C postemergence herbicide test; assay type: in vivo, Setaria viridis
In short: as §1

Italian ryegrass = test: Test C postemergence herbicide test; assay type: in vivo, Lolium multiflorum
In short: as §1

wheat = test: Test C postemergence herbicide test; assay type: in vivo, Triticum aestivum
In short: as §1

wild oat = test: Test C postemergence herbicide test; assay type: in vivo, Avenafatua
In short: as §1

windgrass = test: Test C postemergence herbicide test; assay type: in vivo, Apera spica-venti
In short: as §1

[1] = Postemergence, 500 g ai/ha, scale 0 to 100
[2] = Postemergence, 250 g ai/ha, scale 0 to 100, 0 no effect, 100 complete control
[3] = postemergence, 125 g ai/ha, scale 0 to 100
[4] = postemergence, 62 g ai/ha, scale 0 to 100
[5] = 62 g ai/ha, preemergence, scale 0 to 100
[6] = 250 g ai/ha, scale 0-100, preemergence
[7] = 500 g ai/ha, scale 0 to 100 (0 no effect, 100 complete control), visual, 12 to 14 days, preemergence
[8] = postemergence, 125 g ai/ha, scale 0 to 100 (0 no effect, 100 complete control)
[9] = postemergence, 62 g ai/ha, scale 0 to 100 (0 no effect, 100 complete control)
[10] = Postemergence, 500 g ai/ha, scale 0 to 100, 0 no effect, 100 complete control
[11] = 125 g ai/ha, scale 0 (no effect) to 100 (complete control), visual, 12 to 14 days, preemergence

For CC(=NO)c1cccc(NC(=O)c2cc(C(C)(C)C)nn2CC(F)(F)F)c1 [Compound 112], the “Goosegrass plant response rating” value (goosegrass; [1]) was 30, the “Plant response rating, Goosegrass” value (goosegrass; [2]) was 30 and the “Plant response rating, Goosegrass” value (goosegrass; [3]) was 20. The “Plant response rating, Goosegrass” value (goosegrass; [4]) was 20, the “Chickweed plant response rating” value (chickweed; Postemergence, scale 0 to 100) was 100 and the “Plant response rating, Chickweed” value (chickweed; [2]) was 100. The “Plant response rating, Chickweed” value (chickweed; [3]) was 10 and the “Plant response rating, Chickweed” value (chickweed; [4]) was 0.

With C#CCOC(=O)c1cccc(NC(=O)c2cc(C(C)(C)C)nn2CC)c1 [Compound 84] the “Goosegrass plant response rating” value (goosegrass; [1]) was 10, the “Plant response rating, Goosegrass” value (goosegrass; [2]) was 5 and the “Plant response rating, Goosegrass” value (goosegrass; [3]) was 0. The “Plant response rating, Goosegrass” value (goosegrass; [4]) was 0, the “Chickweed plant response rating” value (chickweed; Postemergence, scale 0 to 100) was 70 and the “Plant response rating, Chickweed” value (chickweed; [2]) was 70. The “Plant response rating, Chickweed” value (chickweed; [3]) was 50 and the “Plant response rating, Chickweed” value (chickweed; [4]) was 0.

For CCNC(=O)c1cccc(NC(=O)c2nn(C(C)(C)CC)nc2CC)c1 [Compound 376], the “Plant response rating, Goosegrass” value (goosegrass; [5]) was 80, the “Plant response rating (0 = no effect, 100 = complete control), Goosegrass” value (goosegrass; 125 g ai/ha, preemergence) was 100 and the “Plant response rating, Goosegrass” value (goosegrass; [6]) was 100. For the same molecule, the “Plant response rating, Goosegrass” value (goosegrass; [7]) was 100, the “Barley, Winter plant response rating” value (winter barley; [1]) was 40 and the “Plant response rating, Barley, Winter” value (winter barley; [2]) was 30. The “Plant response rating, Barley, Winter” value (winter barley; [8]) was 20, the “Plant response rating, Barley, Winter” value (winter barley; [9]) was 20 and the “Blackgrass plant response rating” value (blackgrass; Postemergence, scale 0 to 100) was 65. The “Plant response rating, Blackgrass” value (blackgrass; [2]) was 50, the “Plant response rating, Blackgrass” value (blackgrass; [3]) was 40 and the “Plant response rating, Blackgrass” value (blackgrass; [4]) was 40. The “Plant response rating, Canarygrass” value (canarygrass; [2]) was 55, the “Plant response rating, Canarygrass” value (canarygrass; [10]) was 65 and the “Plant response rating, Canarygrass” value (canarygrass; [3]) was 50. For the same molecule, the “Plant response rating, Canarygrass” value (canarygrass; [4]) was 45, the “Plant response rating, Bromegrass, Downy” value (downy bromegrass; [2]) was 40 and the “Plant response rating, Bromegrass, Downy” value (downy bromegrass; [10]) was 50. For the same molecule, the “Plant response rating, Bromegrass, Downy” value (downy bromegrass; [3]) was 35, the “Plant response rating, Bromegrass, Downy” value (downy bromegrass; [4]) was 35 and the “Plant response rating, Foxtail, Green” value (green foxtail; [2]) was 60. The “Plant response rating, Foxtail, Green” value (green foxtail; [10]) was 65, the “Plant response rating, Foxtail, Green” value (green foxtail; [3]) was 60 and the “Plant response rating, Foxtail, Green” value (green foxtail; [4]) was 40. For the same molecule, the “Plant response rating, Ryegrass, Italian” value (Italian ryegrass; [10]) was 65, the “Plant response rating, Ryegrass, Italian” value (Italian ryegrass; [3]) was 55 and the “Plant response rating, Ryegrass, Italian” value (Italian ryegrass; [4]) was 45. The “Plant response rating, Wheat” value (wheat; [10]) was 25, the “Plant response rating, Wheat” value (wheat; [3]) was 20 and the “Plant response rating, Wheat” value (wheat; [4]) was 20. For the same molecule, the “Plant response rating, Oat, Wild” value (wild oat; [10]) was 60, the “Plant response rating, Oat, Wild” value (wild oat; [3]) was 45 and the “Plant response rating, Oat, Wild” value (wild oat; [4]) was 40. The “Plant response rating, Windgrass” value (windgrass; [10]) was 65, the “Plant response rating, Windgrass” value (windgrass; [3]) was 40 and the “Plant response rating, Windgrass” value (windgrass; [4]) was 40.

For CCn1nc(C(C)(C)C)cc1C(=O)Nc1cccc(OC(F)(F)C(F)F)c1 [Compound 333], the “Plant response rating, Goosegrass” value (goosegrass; [5]) was 0, the “Plant response rating, Goosegrass” value (goosegrass; [11]) was 30 and the “Plant response rating, Goosegrass” value (goosegrass; [6]) was 85. The “Plant response rating, Goosegrass” value (goosegrass; [7]) was 100, the “Goosegrass plant response rating” value (goosegrass; [1]) was 15 and the “Plant response rating, Goosegrass” value (goosegrass; [2]) was 10. For the same molecule, the “Plant response rating, Goosegrass” value (goosegrass; [3]) was 10, the “Plant response rating, Goosegrass” value (goosegrass; [4]) was 5 and the “Plant response rating, Barley, Winter” value (winter barley; [2]) was 55. For the same molecule, the “Plant response rating, Barley, Winter” value (winter barley; [8]) was 45, the “Plant response rating, Barley, Winter” value (winter barley; [9]) was 40 and the “Blackgrass plant response rating” value (blackgrass; Postemergence, scale 0 to 100) was 55. For the same molecule, the “Plant response rating, Blackgrass” value (blackgrass; [2]) was 50, the “Plant response rating, Blackgrass” value (blackgrass; [3]) was 40 and the “Plant response rating, Blackgrass” value (blackgrass; [4]) was 30. For the same molecule, the “Canarygrass plant response rating” value (canarygrass; [1]) was 45, the “Plant response rating, Canarygrass” value (canarygrass; [2]) was 40 and the “Plant response rating, Canarygrass” value (canarygrass; [3]) was 35. The “Plant response rating, Canarygrass” value (canarygrass; [4]) was 35, the “Bromegrass, Downy plant response rating” value (downy bromegrass; [1]) was 45 and the “Plant response rating, Bromegrass, Downy” value (downy bromegrass; [2]) was 45. For the same molecule, the “Plant response rating, Bromegrass, Downy” value (downy bromegrass; [4]) was 40, the “Foxtail, Green plant response rating” value (green foxtail; [1]) was 65 and the “Plant response rating, Foxtail, Green” value (green foxtail; [2]) was 50. The “Plant response rating, Foxtail, Green” value (green foxtail; [3]) was 40, the “Plant response rating, Foxtail, Green” value (green foxtail; [4]) was 30 and the “Ryegrass, Italian plant response rating” value (Italian ryegrass; [1]) was 55. For the same molecule, the “Plant response rating, Ryegrass, Italian” value (Italian ryegrass; [2]) was 50, the “Plant response rating, Ryegrass, Italian” value (Italian ryegrass; [3]) was 35 and the “Plant response rating, Ryegrass, Italian” value (Italian ryegrass; [4]) was 35. For the same molecule, the “Wheat plant response rating” value (wheat; [1]) was 55, the “Plant response rating, Wheat” value (wheat; [2]) was 50 and the “Plant response rating, Wheat” value (wheat; [3]) was 50. The “Plant response rating, Wheat” value (wheat; [4]) was 40, the “Oat, Wild plant response rating” value (wild oat; [1]) was 55 and the “Plant response rating, Oat, Wild” value (wild oat; [2]) was 60. For the same molecule, the “Plant response rating, Oat, Wild” value (wild oat; [3]) was 60, the “Plant response rating, Oat, Wild” value (wild oat; [4]) was 50 and the “Windgrass plant response rating” value (windgrass; [1]) was 80. The “Plant response rating, Windgrass” value (windgrass; [2]) was 50, the “Plant response rating, Windgrass” value (windgrass; [3]) was 25 and the “Plant response rating, Windgrass” value (windgrass; [4]) was 20.

CCn1nc(C(C)(C)C)cc1C(=O)Nc1cccc(C(=O)NC2CC2)n1 [Compound 146] was tested, and the “Plant response rating (0 = no effect, 100 = complete control), Goosegrass” value (goosegrass; 62 g ai/ha, preemergence) was 0, the “Plant response rating, Goosegrass” value (goosegrass; [11]) was 0 and the “Goosegrass plant response rating” value (goosegrass; [1]) was 0. For the same molecule, the “Plant response rating, Goosegrass” value (goosegrass; [2]) was 0, the “Goosegrass plant response rating” value (goosegrass; Preemergence, 500 g ai/ha, scale 0 to 100, 0 no effect, 100 complete control) was 60 and the “Plant response rating, Goosegrass” value (goosegrass; [3]) was 0. For the same molecule, the “Plant response rating, Goosegrass” value (goosegrass; [4]) was 0, the “Plant response rating, Chickweed” value (chickweed; [2]) was 100 and the “Plant response rating, Chickweed” value (chickweed; [3]) was 80. For the same molecule, the “Plant response rating, Chickweed” value (chickweed; [4]) was 10.

— US20060069132A1, “Azolecarboxamide herbicides” (priority 2004, published 2006)
